# Measurements taken from patent US20180289709A1, “METHODS OF TREATING INFLAMMATION” (priority 2010, published 2018).
# Test system: primary mouse lung fibroblasts (MLFs)
# Settings: 1 μM
smiles,measurement,value
CC[C@@H]1C(=O)N(C)c2cnc(Nc3ccc(C(=O)NC4CCN(C)CC4)cc3OC)nc2N1C1CCCC1 [BI 2536],viral replication (luciferase activity in reporter cells),elevated replication
